pEC50: −log10 of the molar value.
Test system: SARS-CoV-2
Experiment: Antiviral activity against SARS-CoV-2 USA-WA1/2020 infected in human HeLa cells harbouring ACE2 assessed as reduction in cytopathic effect pretreated with cells followed by viral infection and measured after 24 hrs by fluorescence based analysis
Type: functional, organism-based
Conditions: Severe acute respiratory syndrome coronavirus 2, USA-WA1/2020, HeLa

Compared with `CC(C)(C)CCC(=O)N1C[C@H]2[C@@H]([C@H]1C(=O)N[C@H](C=O)C[C@@H]1CCNC1=O)C2(C)C`, `CC(C)(C)CC(=O)N1C[C@H]2[C@@H]([C@H]1C(=O)N[C@H](C=O)C[C@@H]1CCNC1=O)C2(C)C` is 0.20 log units lower in pEC50: 6.16 for the first, 5.96 for the second. The first is the more potent here.

First: CC1(C)[C@@H]2[C@@H](C(=O)N[C@H](C=O)C[C@@H]3CCNC3=O)N(C(=O)C3(O)CCCCC3)C[C@@H]21
Second: CC1(C)[C@@H]2[C@@H](C(=O)N[C@H](C=O)C[C@@H]3CCNC3=O)N(C(=O)CC3CCCCC3)C[C@@H]21
The pEC50 of the first is 0.81 log units lower: 5.66 for the first, 6.47 for the second. The second is the more potent here.

`C[C@H](C(=O)N1C[C@H]2[C@@H]([C@H]1C(=O)N[C@H](C=O)C[C@@H]1CCNC1=O)C2(C)C)C1CCCCC1` and `C[C@@H](C(=O)N1C[C@H]2[C@@H]([C@H]1C(=O)N[C@H](C=O)C[C@@H]1CCNC1=O)C2(C)C)C1CCCCC1` are within 0.2 log units of each other in pEC50: 6.33 for the first, 6.52 for the second.

`Cc1cccc2[nH]c(C(=O)N3C[C@H]4[C@@H]([C@H]3C(=O)N[C@H](C=O)C[C@@H]3CCNC3=O)C4(C)C)cc12` and `CC1(C)[C@@H]2[C@@H](C(=O)N[C@H](C=O)C[C@@H]3CCNC3=O)N(C(=O)c3cc4c(F)cccc4[nH]3)C[C@@H]21` are within 0.2 log units of each other in pEC50: 5.85 for the first, 5.74 for the second.

Going from `CC1(C)[C@@H]2[C@@H](C(=O)N[C@H](C=O)C[C@@H]3CCNC3=O)N(C(=O)C3(c4cccc(Cl)c4)CC3)C[C@@H]21` to `CC1(C)[C@@H]2[C@@H](C(=O)N[C@H](C=O)C[C@@H]3CCNC3=O)N(C(=O)C3(c4ccccc4)CC3)C[C@@H]21`, the pEC50 falls from 7.05 to 6.71 (0.34 log units). The first is the more potent here.

Compared with `CC1(C)[C@@H]2[C@@H](C(=O)N[C@H](C=O)C[C@@H]3CCNC3=O)N(C(=O)c3cc4cccc(F)c4[nH]3)C[C@@H]21`, `CC1(C)[C@@H]2[C@@H](C(=O)N[C@H](C=O)C[C@@H]3CCNC3=O)N(C(=O)c3cc4cccc(Cl)c4[nH]3)C[C@@H]21` is 0.38 log units higher in pEC50: 6.14 for the first, 6.52 for the second.

Compared with `CC(C)Oc1cccc2[nH]c(C(=O)N3C[C@H]4[C@@H]([C@H]3C(=O)N[C@H](C=O)C[C@@H]3CCNC3=O)C4(C)C)cc12`, `COc1cccc2[nH]c(C(=O)N3C[C@H]4[C@@H]([C@H]3C(=O)N[C@H](C=O)C[C@@H]3CCNC3=O)C4(C)C)cc12` is 1.54 log units lower in pEC50: 6.60 for the first, 5.06 for the second. The first is the more potent here.

Going from `CC1(C)[C@@H]2[C@@H](C(=O)N[C@H](C=O)C[C@@H]3CCNC3=O)N(C(=O)C3(c4ccccc4)CCCC3)C[C@@H]21` to `CC1(C)[C@@H]2[C@@H](C(=O)N[C@H](C=O)C[C@@H]3CCNC3=O)N(C(=O)Cc3ccccc3)C[C@@H]21`, the pEC50 falls from 6.96 to 6.28 (0.68 log units).

`COc1cccc2cc(C(=O)N3C[C@H]4[C@@H]([C@H]3C(=O)N[C@H](C=O)C[C@@H]3CCNC3=O)C4(C)C)[nH]c12` and `Cc1cccc2cc(C(=O)N3C[C@H]4[C@@H]([C@H]3C(=O)N[C@H](C=O)C[C@@H]3CCNC3=O)C4(C)C)[nH]c12` are the same in pEC50: 5.89 for the first, 5.89 for the second.

Compared with `O=C[C@H](C[C@@H]1CCNC1=O)NC(=O)[C@@H]1C[C@@H](C2CCCCC2)CN1C(=O)c1cc2ccccc2[nH]1`, `O=C[C@H](C[C@@H]1CCNC1=O)NC(=O)[C@@H]1CC2(CC2)CN1C(=O)c1cc2ccccc2[nH]1` is 1.07 log units lower in pEC50: 6.11 for the first, 5.04 for the second.

First: CC1(C)[C@@H]2[C@@H](C(=O)N[C@H](C=O)C[C@@H]3CCNC3=O)N(C(=O)c3cc4c(C#N)cccc4[nH]3)C[C@@H]21
Second: CC1(C)[C@@H]2[C@@H](C(=O)N[C@H](C=O)C[C@@H]3CCNC3=O)N(C(=O)c3cc4cccc(C#N)c4[nH]3)C[C@@H]21
The pEC50 of the first is 1.32 log units lower: 5.07 for the first, 6.39 for the second.

Compared with `CC(C)c1ccc(Cl)c2[nH]c(C(=O)N3C[C@H]4[C@@H]([C@H]3C(=O)N[C@H](C=O)C[C@@H]3CCNC3=O)C4(C)C)cc12`, `CC(C)c1ccc(F)c2[nH]c(C(=O)N3C[C@H]4[C@@H]([C@H]3C(=O)N[C@H](C=O)C[C@@H]3CCNC3=O)C4(C)C)cc12` is 0.35 log units higher in pEC50: 6.57 for the first, 6.92 for the second. The second is the more potent here.

First: CCc1cccc2[nH]c(C(=O)N3C[C@H]4[C@@H]([C@H]3C(=O)N[C@H](C=O)C[C@@H]3CCNC3=O)C4(C)C)cc12
Second: CC(C)c1cccc2[nH]c(C(=O)N3C[C@H]4[C@@H]([C@H]3C(=O)N[C@H](C=O)C[C@@H]3CCNC3=O)C4(C)C)cc12
The pEC50 of the first is 0.23 log units lower: 6.20 for the first, 6.43 for the second.

Going from `Cc1cccc([C@@H](C)C(=O)N2C[C@H]3[C@@H]([C@H]2C(=O)N[C@H](C=O)C[C@@H]2CCNC2=O)C3(C)C)c1` to `C[C@@H](C(=O)N1C[C@H]2[C@@H]([C@H]1C(=O)N[C@H](C=O)C[C@@H]1CCNC1=O)C2(C)C)c1ccccc1`, the pEC50 falls from 6.77 to 6.52 (0.25 log units). The first is the more potent here.

Going from `CC1(C)[C@@H]2[C@@H](C(=O)N[C@H](C=O)C[C@@H]3CCNC3=O)N(C(=O)c3cc4cccc(C(F)(F)F)c4[nH]3)C[C@@H]21` to `CC1(C)[C@@H]2[C@@H](C(=O)N[C@H](C=O)C[C@@H]3CCNC3=O)N(C(=O)c3cc4cc(F)ccc4[nH]3)C[C@@H]21`, the pEC50 falls from 6.62 to 5.40 (1.22 log units). The first is the more potent here.

`CC1(C)[C@@H]2[C@@H](C(=O)N[C@H](C=O)C[C@@H]3CCNC3=O)N(C(=O)c3cc4ccccc4[nH]3)C[C@@H]21` and `CC1(C)[C@@H]2[C@@H](C(=O)N[C@H](C=O)C[C@@H]3CCNC3=O)N(C(=O)c3cc4ccc(F)cc4[nH]3)C[C@@H]21` are within 0.2 log units of each other in pEC50: 5.60 for the first, 5.74 for the second.

Compared with `CC1CCC(CC(=O)N2C[C@H]3[C@@H]([C@H]2C(=O)N[C@H](C=O)C[C@@H]2CCNC2=O)C3(C)C)CC1` (some centres undefined), `CC(C)(C(=O)N1C[C@H]2[C@@H]([C@H]1C(=O)N[C@H](C=O)C[C@@H]1CCNC1=O)C2(C)C)c1ccccc1` is 0.34 log units lower in pEC50: 6.80 for the first, 6.46 for the second. The first is the more potent here.

Work on `CC1(C)C[C@@H](C(=O)N[C@H](C=O)C[C@@H]2CCNC2=O)N(C(=O)c2cc3ccccc3[nH]2)C1` yielded a pEC50 of 5.15.

Test system: SARS-CoV-2
Experiment: Selectivity ratio of EC50 for antiviral activity against SARS-CoV-2 USA-WA1/2020 infected in human HeLa cells harbouring ACE2 to IC50 for inhibition of C terminal 6 his tagged SARS-CoV-2 main protease expressed in Escherichia coli BL-21-Gold(DE3) cells
Type: functional
Conditions: not given

`O=C[C@H](C[C@@H]1CCNC1=O)NC(=O)[C@@H]1C[C@@H](C2CCCCC2)CN1C(=O)c1cc2ccccc2[nH]1` and `O=C[C@H](C[C@@H]1CCNC1=O)NC(=O)[C@@H]1CC2(CC2)CN1C(=O)c1cc2ccccc2[nH]1` are the same in Selectivity ratio: 30 for the first, 30 for the second.

`CC1(C)[C@@H]2[C@@H](C(=O)N[C@H](C=O)C[C@@H]3CCNC3=O)N(C(=O)c3cc4ccccc4[nH]3)C[C@@H]21` and `CC1(C)C[C@@H](C(=O)N[C@H](C=O)C[C@@H]2CCNC2=O)N(C(=O)c2cc3ccccc3[nH]2)C1` are the same in Selectivity ratio: 30 for the first, 30 for the second.
